One may read the IC50 as the midpoint of a concentration-inhibition curve. The term ED50 denotes the dose that gives a 50% effect, or the effect in half of the subjects. As usually defined, the melting point is the temperature of the solid-liquid transition.

Where a name gives a salt, the structure may show the parent alone.

Results on 14 compounds are retold here after patent US7320980B2, “Substituted pyrido(1,2-a)pyrimidines and their use as NOS inhibitors” (Gruenenthal GmbH, priority 2003, dated 2008).

One data set concerns the target T1, NO synthase (Rattus norvegicus, UniProt P29476).
T1 construct: the supernatant was then decanted off and frozen in portions at −80° C., discarding the precipitate; from tissue; host or cells: rat cerebellum, 20,000 g supernatant of homogenate
The data set can be described thus: NOS / HTS-NOS assay (radioactive arginine conversion, rat cerebellum enzyme preparation). The format is biochemical. As to conditions: rat cerebellum supernatant enzyme, [3H]-arginine substrate, 25° C.; read-out: NOS Arg IC50. An excerpt:
This assay makes it possible to determine the percentage inhibition of NO synthase (hereinafter referred to as the enzyme) by a compound of the general formula II used according to the invention, optionally in the form of one of the pure stereoisomers thereof, in particular enantiomers or diastereomers, the racemates thereof or in the form of a mixture of stereoisomers, in particular the enantiomers or diastereomers, in any desired mixing ratio, or in each case in the form of the free base thereof or in the form of the physiologically acceptable salt thereof, in particular hydroperchlorate salt or in each case in the form of the solvate thereof, in particular hydrate (hereinafter referred to as the active ingredient), by measuring enzyme activity on exposure to the compound. The enzyme is here mixed under suitable conditions together with radioactively labelled arginine and the particular active ingredient. After termination of the NO formation reaction at a predetermined time, the quantity of unconverted arginine is directly or indirectly determined.
This assay may be carried out at follows: • (a) Incubation of the enzyme with labelled arginine as the substrate in a reaction vessel, • (b) Separation of the labelled arginine from the labelled citrulline optionally arising as a product of the enzymatic reaction at a time at which the concentration of citrulline is rising, • (c) Measurement of the quantity of arginine separated in each case.
Separation is performed by means of a filter plate membrane.
Radioactive arginine is used as the substrate in this HTS-NOS assay. Depending on the type of microtitre plate (MTP), the assay volume may be selected in the range between 25 μl and 250 μl. Depending on the enzyme source used, cofactors and coenzymes are added. The batches are incubated in this microtitre plate (assay MTP) according to step (a) at room temperature and, depending on the enzyme activity used (units), lasts between 5 and 60 minutes. On completion of incubation (step (a)), the plate is placed in a cell harvester, which is equipped with an MTP which has a cation exchange membrane as a filter bottom (filter MTP). All the batches from the assay MTP are transferred into this filter MTP and suction filtered through a cation exchange filter plate, a paper filter loaded with phosphate groups. The filter MTP is then washed with buffer or water. This procedure binds the remaining substrate arginine onto the cation exchanger, while the enzymatically formed radioactive citrulline is quantitatively eluted. Once the filter MTP has been dried and scintillation liquid (Ready Protein, Beckmann Coulter GmbH, Krefeld, Germany) added, the bound arginine can be counted in the scintillation counter (Packard TRI-CARB Liquid Scintillation Analyzer 2000 CA, Packard Instrument, Meriden, Conn. 06450, USA). Low radioactivity indicates an uninhibited enzyme reaction. An inhibited enzyme reaction means that the radioactive arginine has not been converted. It may be concluded from this that there is then a high level of radioactivity on the filter.
The NOS and HTS-NOS assays were performed as described above.
Rat cerebella were used as the starting tissue. The animals were stunned and killed, the brain tissue, the cerebellum, was dissected out, 1 ml of enzyme preparation buffer (4° C.) was added per cerebellum, and the tissue was disrupted for 1 min at 6000 rpm in a Polytron homogeniser. The mixture was then centrifuged at 4° C. for 15 min at 20,000 g, and the supernatant was then decanted off and frozen in portions at −80° C., discarding the precipitate. The frozen supernatant was subsequently thawed for the assay and pipetted out onto a microtitre plate.
96-well MTPs with a well capacity of <250 μl were used.
Once pipetting was complete, a lid was placed on this MTP (assay MTP) and incubation performed at 25° C. (room temperature [RT]) for 5-60 min, depending on the quantity and activity of the enzyme used (see in this connection Table 1). […]
Consider `CC1=CC2=NCC(C(=O)c3ccc4ccccc4c3)CN2C=C1` (stereo not drawn) [Example 1, 3-(2′-Naphthoyl)-3,4-dihydro-2H-8-methylpyrido[1,2-a]pyrimidinium perchlorate], for which the IC50 was 1.4 µM.

For the compound `CC1=CC2=NCC(C(=O)c3ccc4ccccc4c3)CN2C(C)=C1` (stereo not drawn) [Example 2, 3-(2′-Naphthoyl)-3,4-dihydro-2H-6,8-dimethylpyrido[1,2-a]pyrimidinium perchlorate], the IC50 is 6.7 µM. Regarding `CC1=CC2=NCC(C(=O)c3ccc(Br)cc3)CN2C=C1` (stereo not drawn) [Example 3, 3-(4′-Bromobenzoyl)-3,4-dihydro-2H-8-methylpyrido[1,2-a]pyrimidinium perchlorate], the IC50 came to 14 µM. Same read-out and setting: to `CC1=CC2=NCC(C(=O)c3ccc(F)cc3)CN2C=C1` (stereo not drawn) [Example 4, 3-(4′-Fluorobenzoyl)-3,4-dihydro-2H-8-methylpyrido[1,2-a]pyrimidinium perchlorate] belongs 8.5 µM; to `CC1=CC2=NCC(C(=O)c3ccccc3)CN2C=C1` (stereo not drawn) [Example 5, 3-Benzoyl-3,4-dihydro-2H-8-methylpyrido[1,2-a]pyrimidinium perchlorate], 9.1 µM. The same measure, in the same setting: to `CC1=CC2=NCC(C(=O)c3ccccc3)CN2C(C)=C1` (stereo not drawn) [Example 6, 3-Benzoyl-3,4-dihydro-2H-6,8-dimethylpyrido[1,2-a]pyrimidinium perchlorate] belongs 8.4 µM; to `CC1=CC2=NCC(C(=O)c3ccc(Cl)cc3)CN2C=C1` (stereo not drawn) [Example 7, 3-(4′-Chlorobenzoyl)-3,4-dihydro-2H-8-methylpyrido[1,2-a]pyrimidinium perchlorate], 6.4 µM. Still for that read-out and setting: the value for `CC1=CC2=NCC(C(=O)c3ccc(-c4ccccc4)cc3)CN2C=C1` (stereo not drawn) [Example 8, 3-(4′-Biphenylcarbonyl)-3,4-dihydro-2H-8-methylpyrido[1,2-a]pyrimidinium perchlorate] was 13 µM; that for `CC1=CC=CC2=NCC(C(=O)c3ccc(-c4ccccc4)cc3)CN12` (stereo not drawn) [Example 9, 3-(4′-Biphenylcarbonyl)-3,4-dihydro-2H-6-methylpyrido[1,2-a]pyrimidinium perchlorate] was 7.6 µM.

The next data set deals with formaldehyde-induced nociception. In words: Formaldehyde test (rat), second phase. The format is in vivo. As to conditions: iv, male Sprague-Dawley rats, second (late) phase of formaldehyde test, pain rate change relative to control. Here is the method:
The investigations for determining the antinociceptive action of the compounds used according to the invention of the general formula II were carried out by the formaldehyde test on male rats (Sprague-Dawley, 150-170 g, Charles River).
In the formaldehyde test, a distinction is drawn between the first (early) phase (0-15 min after formaldehyde injection) and the second (later) phase (15-60 min after formaldehyde injection), as described in D. Dubuisson, S. G. Dennis, Pain 4, 161-174 (1977). […]
A nociceptive reaction was induced in the freely mobile test animals by a single, subcutaneous formaldehyde injection (50 μl, 5 wt. %) into the dorsal side of the rear hind paw, the reaction being classed according to one of the following behavioural parameters: lifting and holding up the affected paw (score 1), shaking or twitching (score 2), licking and biting (score 3). The differential behaviour induced by the formaldehyde injection was recorded by observing the rats in the late phase of the formaldehyde test and assigned a variable weighting in the evaluation. Normal behaviour, in which the rat places an even load on all four paws, was recorded as a score of 0. […] The nociceptive behaviour was calculated as a “pain rate” (PR). […]
The analgesic action of the compounds of the general formula II used according to the invention was determined as described above.
As for `CC1=CC2=NCC(C(=O)c3ccc4ccccc4c3)CN2C=C1` (stereo not drawn) [Example 1, 3-(2′-Naphthoyl)-3,4-dihydro-2H-8-methylpyrido[1,2-a]pyrimidinium perchlorate], the ED50 amounted to 7.27 mg/kg.

Test system in another data set: not given
Test: not given
Details: not given
Take `CC1=CC2=NCC(C(=O)c3ccc(Br)cc3)CN2C=C1` (stereo not drawn) (as salt: perchlorate) [Example 3, 3-(4′-Bromobenzoyl)-3,4-dihydro-2H-8-methylpyrido[1,2-a]pyrimidinium perchlorate]: the melting point was 158 to 161 °C.

The compound `CC1=CC2=NCC(C(=O)c3ccccc3)CN2C=C1` (stereo not drawn) (as salt: perchlorate) [Example 5, 3-Benzoyl-3,4-dihydro-2H-8-methylpyrido[1,2-a]pyrimidinium perchlorate] gave a melting point above 290 °C. Compound `CC1=CC2=NCC(C(=O)c3ccccc3)CN2C(C)=C1` (stereo not drawn) (as salt: perchlorate) [Example 6, 3-Benzoyl-3,4-dihydro-2H-6,8-dimethylpyrido[1,2-a]pyrimidinium perchlorate] gave a melting point of 78 °C. The same measure, in the same setting: to `CC1=CC2=NCC(C(=O)c3ccc(Cl)cc3)CN2C=C1` (stereo not drawn) (as salt: perchlorate) [Example 7, 3-(4′-Chlorobenzoyl)-3,4-dihydro-2H-8-methylpyrido[1,2-a]pyrimidinium perchlorate] belongs 123 to 125 °C. On the same count and under the same terms, to `CC1=CC2=NCC(C(=O)c3ccc(-c4ccccc4)cc3)CN2C=C1` (stereo not drawn) (as salt: perchlorate) [Example 8, 3-(4′-Biphenylcarbonyl)-3,4-dihydro-2H-8-methylpyrido[1,2-a]pyrimidinium perchlorate] belongs 111 °C.
